Laboratory results reported in patent US20110039721A1, “METHOD FOR PREDICTION ABOUT CARCINOGENICITY OF SUBSTANCE IN RODENT” (Chemicals Evaluation and Research Institute, priority 2007, published 2011).

Tests used:
liver = settings: in vivo; cited from earlier work
rodent = settings: in vivo; cited from earlier work
[1] = tested on: mRNA expressed from the genes (A) to (D) in rat liver; experiment: Behavior of genes (mRNA expression level, oligo-DNA microarray) in rat liver after 28-day oral administration; type: in vivo
Method in brief: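 Liver mRNA measured by oligo-DNA microarray after 28 days of once-daily oral gavage in 5-week-old male F344 rats (n=4 per group), with vehicle controls given equal solvent volume. Significance threshold: 1.5-fold up or down versus control, with changes opposite in direction to other carcinogens counted as not significant.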

[2] = gene group (A), Unigene No. Rn.167075
[3] = gene group (C), Unigene No. Rn.120914

Structure (SMILES): Cc1cc(N)ccc1N.O=S(=O)(O)O [TS060, 2,5-Toluenediamine SO4]
- Liver carcinogenicity (liver): Cr−
- Carcinogenicity (rodent): C−
- Behavior of gene caused by administration of chemical substance, Gene No. 4846 ([1]; gene group (A), Unigene No. Rn.144554): −
- Behavior of gene caused by administration of chemical substance, Gene No. 2026 [1, 2]: −
- Behavior of gene caused by administration of chemical substance, Gene No. 4218 [1, 2]: −
- Behavior of gene caused by administration of chemical substance, Gene No. 6182 ([1]; gene group (A), Unigene No. Rn.5834): −
- Behavior of gene caused by administration of chemical substance, Gene No. 5600 ([1]; gene group (A), Unigene No. Rn.9836): −
- Behavior of gene caused by administration of chemical substance, Gene No. 1494 ([1]; gene group (B), Unigene No. Rn.1430): −
- Behavior of gene caused by administration of chemical substance, Gene No. 2045 ([1]; gene group (B), Unigene No. Rn.19329): −
- Behavior of gene caused by administration of chemical substance, Gene No. 2203 ([1]; gene group (B), Unigene No. Rn.21240): −
- Behavior of gene caused by administration of chemical substance, Gene No. 533 ([1]; gene group (C), Unigene No. Rn.106184): −
- Behavior of gene caused by administration of chemical substance, Gene No. 725 ([1]; gene group (C), Unigene No. Rn.108075): −
- Behavior of gene caused by administration of chemical substance, Gene No. 1163 ([1]; gene group (C), Unigene No. Rn.11766): +
- Behavior of gene caused by administration of chemical substance, Gene No. 4973 ([1]; gene group (C), Unigene No. Rn.118529): −
- Behavior of gene caused by administration of chemical substance, Gene No. 4095 ([1]; gene group (C), Unigene No. Rn.119024): −
- Behavior of gene caused by administration of chemical substance, Gene No. 1334 [1, 3]: −
- Behavior of gene caused by administration of chemical substance, Gene No. 6620 [1, 3]: −
- Behavior of gene caused by administration of chemical substance, Gene No. 6303 ([1]; gene group (C), Unigene No. Rn.123063): −
- Behavior of gene caused by administration of chemical substance, Gene No. 5878 ([1]; gene group (C), Unigene No. Rn.143213): −
- Behavior of gene caused by administration of chemical substance, Gene No. 1131 ([1]; gene group (C), Unigene No. Rn.144946): +
- Behavior of gene caused by administration of chemical substance, Gene No. 1562 ([1]; gene group (C), Unigene No. Rn.14744): −
- Behavior of gene caused by administration of chemical substance, Gene No. 1741 ([1]; gene group (C), Unigene No. Rn.1647): −
- Behavior of gene caused by administration of chemical substance, Gene No. 893 ([1]; gene group (C), Unigene No. Rn.164817): +
- Behavior of gene caused by administration of chemical substance, Gene No. 6026 ([1]; gene group (C), Unigene No. Rn.167685): −
- Behavior of gene caused by administration of chemical substance, Gene No. 154 ([1]; gene group (C), Unigene No. Rn.185941): −
- Behavior of gene caused by administration of chemical substance, Gene No. 1993 ([1]; gene group (C), Unigene No. Rn.18728): −
- Behavior of gene caused by administration of chemical substance, Gene No. 813 ([1]; gene group (C), Unigene No. Rn.201760): −
- Behavior of gene caused by administration of chemical substance, Gene No. 2494 ([1]; gene group (C), Unigene No. Rn.23969): −
- Behavior of gene caused by administration of chemical substance, Gene No. 2546 ([1]; gene group (C), Unigene No. Rn.24561): −
- Behavior of gene caused by administration of chemical substance, Gene No. 3776 ([1]; gene group (C), Unigene No. Rn.43232): −
- Behavior of gene caused by administration of chemical substance, Gene No. 3929 ([1]; gene group (C), Unigene No. Rn.4620): +
- Behavior of gene caused by administration of chemical substance, Gene No. 1119 ([1]; gene group (C), Unigene No. Rn.9757): −
- Behavior of gene caused by administration of chemical substance, Gene No. 6742 ([1]; gene group (C), Unigene No. Rn.9779): −
- Behavior of gene caused by administration of chemical substance, Gene No. 5634 ([1]; gene group (C), Unigene No. Rn.9862): +
- Behavior of gene caused by administration of chemical substance, Gene No. 5726 ([1]; gene group (D), Unigene No. Rn.9939): −

Structure (SMILES): O=C1N=C([O-])NC1(c1ccccc1)c1ccccc1.[Na+] [TS069, Phenytoin Na]
- Liver carcinogenicity (liver): Cr−
- Carcinogenicity (rodent): C+
- Behavior of gene caused by administration of chemical substance, Gene No. 154 ([1]; rat, in vivo): +
- Behavior of gene caused by administration of chemical substance, Gene No. 533 ([1]; rat, in vivo): −
- Behavior of gene caused by administration of chemical substance, Gene No. 725 ([1]; rat, in vivo): +
- Behavior of gene caused by administration of chemical substance, Gene No. 813 ([1]; rat, in vivo): −
- Behavior of gene caused by administration of chemical substance, Gene No. 893 ([1]; rat, in vivo): −
- Behavior of gene caused by administration of chemical substance, Gene No. 1119 ([1]; rat, in vivo): −
- Behavior of gene caused by administration of chemical substance, Gene No. 1131 ([1]; rat, in vivo): −
- Behavior of gene caused by administration of chemical substance, Gene No. 1163 ([1]; rat, in vivo): −
- Behavior of gene caused by administration of chemical substance, Gene No. 1334 ([1]; rat, in vivo): −
- Behavior of gene caused by administration of chemical substance, Gene No. 1494 ([1]; rat, in vivo): +
- Behavior of gene caused by administration of chemical substance, Gene No. 1562 ([1]; rat, in vivo): −
- Behavior of gene caused by administration of chemical substance, Gene No. 1741 ([1]; rat, in vivo): +
- Behavior of gene caused by administration of chemical substance, Gene No. 1993 ([1]; rat, in vivo): −
- Behavior of gene caused by administration of chemical substance, Gene No. 2026 ([1]; rat, in vivo): −
- Behavior of gene caused by administration of chemical substance, Gene No. 2045 ([1]; rat, in vivo): +
- Behavior of gene caused by administration of chemical substance, Gene No. 2203 ([1]; rat, in vivo): +
- Behavior of gene caused by administration of chemical substance, Gene No. 2494 ([1]; rat, in vivo): −
- Behavior of gene caused by administration of chemical substance, Gene No. 2546 ([1]; rat, in vivo): −
- Behavior of gene caused by administration of chemical substance, Gene No. 3776 ([1]; rat, in vivo): −
- Behavior of gene caused by administration of chemical substance, Gene No. 3929 ([1]; rat, in vivo): +
- Behavior of gene caused by administration of chemical substance, Gene No. 4095 ([1]; rat, in vivo): +
- Behavior of gene caused by administration of chemical substance, Gene No. 4218 ([1]; rat, in vivo): −
- Behavior of gene caused by administration of chemical substance, Gene No. 4846 ([1]; rat, in vivo): −
- Behavior of gene caused by administration of chemical substance, Gene No. 4973 ([1]; rat, in vivo): +
- Behavior of gene caused by administration of chemical substance, Gene No. 5600 ([1]; rat, in vivo): −
- Behavior of gene caused by administration of chemical substance, Gene No. 5634 ([1]; rat, in vivo): +
- Behavior of gene caused by administration of chemical substance, Gene No. 5726 ([1]; rat, in vivo): −
- Behavior of gene caused by administration of chemical substance, Gene No. 5878 ([1]; rat, in vivo): −
- Behavior of gene caused by administration of chemical substance, Gene No. 6026 ([1]; rat, in vivo): −
- Behavior of gene caused by administration of chemical substance, Gene No. 6182 ([1]; rat, in vivo): +
- Behavior of gene caused by administration of chemical substance, Gene No. 6303 ([1]; rat, in vivo): −
- Behavior of gene caused by administration of chemical substance, Gene No. 6620 ([1]; rat, in vivo): −
- Behavior of gene caused by administration of chemical substance, Gene No. 6742 ([1]; rat, in vivo): −

Structure (SMILES): CC(=O)Nc1ccc(C(=O)CCl)cc1 [TS072, 4-(Chloroacetyl)acetanilide]
- Liver carcinogenicity (liver): Cr−
- Carcinogenicity (rodent): C−
- Behavior of gene caused by administration of chemical substance, Gene No. 154 ([1]; rat, in vivo): −
- Behavior of gene caused by administration of chemical substance, Gene No. 533 ([1]; rat, in vivo): +
- Behavior of gene caused by administration of chemical substance, Gene No. 725 ([1]; rat, in vivo): +
- Behavior of gene caused by administration of chemical substance, Gene No. 813 ([1]; rat, in vivo): −
- Behavior of gene caused by administration of chemical substance, Gene No. 893 ([1]; rat, in vivo): −
- Behavior of gene caused by administration of chemical substance, Gene No. 1119 ([1]; rat, in vivo): −
- Behavior of gene caused by administration of chemical substance, Gene No. 1131 ([1]; rat, in vivo): −
- Behavior of gene caused by administration of chemical substance, Gene No. 1163 ([1]; rat, in vivo): +
- Behavior of gene caused by administration of chemical substance, Gene No. 1334 ([1]; rat, in vivo): −
- Behavior of gene caused by administration of chemical substance, Gene No. 1494 ([1]; rat, in vivo): +
- Behavior of gene caused by administration of chemical substance, Gene No. 1562 ([1]; rat, in vivo): −
- Behavior of gene caused by administration of chemical substance, Gene No. 1741 ([1]; rat, in vivo): −
- Behavior of gene caused by administration of chemical substance, Gene No. 1993 ([1]; rat, in vivo): −
- Behavior of gene caused by administration of chemical substance, Gene No. 2026 ([1]; rat, in vivo): +
- Behavior of gene caused by administration of chemical substance, Gene No. 2045 ([1]; rat, in vivo): +
- Behavior of gene caused by administration of chemical substance, Gene No. 2203 ([1]; rat, in vivo): +
- Behavior of gene caused by administration of chemical substance, Gene No. 2494 ([1]; rat, in vivo): −
- Behavior of gene caused by administration of chemical substance, Gene No. 2546 ([1]; rat, in vivo): −
- Behavior of gene caused by administration of chemical substance, Gene No. 3776 ([1]; rat, in vivo): +
- Behavior of gene caused by administration of chemical substance, Gene No. 3929 ([1]; rat, in vivo): −
- Behavior of gene caused by administration of chemical substance, Gene No. 4095 ([1]; rat, in vivo): −
- Behavior of gene caused by administration of chemical substance, Gene No. 4218 ([1]; rat, in vivo): +
- Behavior of gene caused by administration of chemical substance, Gene No. 4846 ([1]; rat, in vivo): +
- Behavior of gene caused by administration of chemical substance, Gene No. 4973 ([1]; rat, in vivo): +
- Behavior of gene caused by administration of chemical substance, Gene No. 5600 ([1]; rat, in vivo): +
- Behavior of gene caused by administration of chemical substance, Gene No. 5634 ([1]; rat, in vivo): −
- Behavior of gene caused by administration of chemical substance, Gene No. 5726 ([1]; rat, in vivo): −
- Behavior of gene caused by administration of chemical substance, Gene No. 5878 ([1]; rat, in vivo): −
- Behavior of gene caused by administration of chemical substance, Gene No. 6026 ([1]; rat, in vivo): −
- Behavior of gene caused by administration of chemical substance, Gene No. 6182 ([1]; rat, in vivo): +
- Behavior of gene caused by administration of chemical substance, Gene No. 6303 ([1]; rat, in vivo): −
- Behavior of gene caused by administration of chemical substance, Gene No. 6620 ([1]; rat, in vivo): −
- Behavior of gene caused by administration of chemical substance, Gene No. 6742 ([1]; rat, in vivo): −
